The term melting point denotes the temperature of the solid-liquid transition.

Consider `NC(=O)c1[nH]c2cnccc2c1-c1ccc(NC(=O)Nc2ccccc2C(F)(F)F)cc1` [Example 35, 3-{4-[3-(2-Trifluoromethylphenyl)ureido]phenyl}-1H-pyrrolo[2,3-c]pyridine-2-carboxamide], for which the melting point is 228 °C.

For `NC(=O)c1[nH]c2cnccc2c1-c1ccc(NC(=O)Nc2cccc(C(F)(F)F)c2)cc1` [Example 36, 3-{4-[3-(3-Trifluoromethylphenyl)ureido]phenyl}-1H-pyrrolo-[2,3-c]pyridine-2-carboxamide], the melting point was 256 °C.

For `NC(=O)c1[nH]c2cnccc2c1-c1ccc(NC(=O)Nc2ccc(F)cc2)cc1` [Example 37, 3-{4-[3-(4-Fluorophenyl)ureido]phenyl}-1H-pyrrolo[2,3-c]-pyridine-2-carboxamide], the melting point came to 271 °C.

With `NC(=O)c1[nH]c2cnccc2c1-c1ccc(NC(=O)Nc2ccc(C(F)(F)F)cc2)cc1` [Example 38, 3-{4-[3-(4-Trifluoromethylphenyl)ureido]phenyl}-1H-pyrrolo-[2,3-c]pyridine-2-carboxamide], the melting point came to 289 °C.

Turning to `Cc1ccc(NC(=O)Nc2ccc(-c3c(C(N)=O)[nH]c4cnccc34)cc2)cc1` [Example 39, 3-[4-(3-p-Tolylureido)phenyl]-1H-pyrrolo[2,3-c]pyridine-2-carboxamide], the melting point was 277 °C.

Molecule `NC(=O)c1[nH]c2cnccc2c1-c1ccc(NC(=O)Nc2ccc(Cl)c(C(F)(F)F)c2)cc1` [Example 40, 3-{4-[3-(4-Chloro-3-trifluoromethylphenyl)ureido]phenyl}-1H-pyrrolo[2,3-c]pyridine-2-carboxamide] came in with a melting point of 228 °C.

`NC(=O)c1[nH]c2cnccc2c1-c1ccc(NC(=O)Nc2cc(C(F)(F)F)ccc2Cl)cc1` [Example 41, 3-{4-[3-(2-Chloro-5-trifluoromethylphenyl)ureido]phenyl}-1H-pyrrolo[2,3-c]pyridine-2-carboxamide] displayed a melting point of 243 °C.

Molecule `NC(=O)c1[nH]c2cnccc2c1-c1ccc(NC(=O)Nc2ccc(OC(F)(F)F)cc2)cc1` [Example 42, 3-{4-[3-(4-Trifluoromethoxyphenyl)ureido]phenyl}-1H-pyrrolo[2,3-c]pyridine-2-carboxamide] gave a melting point of 276 °C.

`NC(=O)c1[nH]c2cnccc2c1-c1ccc(NC(=O)Nc2ccc(OC(F)F)cc2)cc1` [Example 43, 3-{4-[3-(4-Difluoromethoxyphenyl)ureido]phenyl}-1H-pyrrolo[2,3-c]pyridine-2-carboxamide] showed a melting point of 257 °C.

On to `Cc1ccc(NC(=O)Nc2ccc(-c3c(C(N)=O)[nH]c4cnccc34)cc2)cc1C` [Example 44, 3-{4-[3-(3,4-Dimethylphenyl)ureido]phenyl}-1H-pyrrolo[2,3-c]pyridine-2-carboxamide], for which the melting point was found to be 230 °C.

`COc1cc(NC(=O)Nc2ccc(-c3c(C(N)=O)[nH]c4cnccc34)cc2)cc(OC)c1` [Example 45, 3-{4-[3-(3,5-Dimethoxyphenyl)ureido]phenyl}-1H-pyrrolo-[2,3-c]pyridine-2-carboxamide] had a melting point of 225 °C.

The molecule `Cc1ccc(C)c(NC(=O)Nc2ccc(-c3c(C(N)=O)[nH]c4cnccc34)cc2)c1` [Example 46, 3-{4-[3-(2,5-Dimethylphenyl)ureido]phenyl}-1H-pyrrolo[2,3-c]pyridine-2-carboxamide] had a melting point of 261 °C.

As to `NC(=O)c1[nH]c2cnccc2c1-c1ccc(NC(=O)Nc2ccccc2F)cc1` [Example 47, 3-{4-[3-(2-Fluorophenyl)ureido]phenyl}-1H-pyrrolo[2,3-c]-pyridine-2-carboxamide], the melting point was found to be 242 °C.

Regarding `NC(=O)c1[nH]c2cnccc2c1-c1ccc(NC(=O)Nc2cccc(F)c2)cc1` [Example 48, 3-{4-[3-(3-Fluorophenyl)ureido]phenyl}-1H-pyrrolo[2,3-c]-pyridine-2-carboxamide], the melting point came out at 252 °C.

`NC(=O)c1[nH]c2cnccc2c1-c1ccc(NC(=O)Nc2cccc(C(F)(F)F)c2F)cc1` [Example 49, 3-{4-[3-(2-Fluoro-3-trifluoromethylphenyl)ureido]phenyl}-1H-pyrrolo[2,3-c]pyridine-2-carboxamide] came in with a melting point of 240 °C.

On to `NC(=O)c1[nH]c2cnccc2c1-c1ccc(NC(=O)Nc2cc(F)cc(C(F)(F)F)c2)cc1` [Example 50, 3-{4-[3-(3-Fluoro-5-trifluoromethylphenyl)ureido]phenyl}-1H-pyrrolo[2,3-c]pyridine-2-carboxamide], for which the melting point was 261 °C.

As to `NC(=O)c1[nH]c2cnccc2c1-c1ccc(NC(=O)Nc2ccc(F)c(C(F)(F)F)c2)cc1` [Example 51, 3-{4-[3-(4-Fluoro-3-trifluoromethylphenyl)ureido]phenyl}-1H-pyrrolo[2,3-c]pyridine-2-carboxamide], the melting point turned out to be 201 °C.

Molecule `Cc1ccc(NC(=O)Nc2ccc(-c3c(C(N)=O)[nH]c4cnccc34)cc2)cc1C(F)(F)F` [Example 52, 3-{4-[3-(4-Methyl-3-trifluoromethylphenyl)ureido]phenyl}-1H-pyrrolo[2,3-c]pyridine-2-carboxamide] showed a melting point of 199 °C.

The molecule `Cc1ccccc1NC(=O)Nc1ccc(-c2c(C(N)=O)[nH]c3cnccc23)cc1` [Example 56, 3-[4-(3-o-Tolylureido)phenyl]-1H-pyrrolo[2,3-c]pyridine-2-carboxamide] displayed a melting point of 270 °C.

With `COc1ccc(NC(=O)Nc2ccc(-c3c(C(N)=O)[nH]c4cnccc34)cc2)cc1` [Example 57, 3-{4-[3-(4-Methoxyphenyl)ureido]phenyl}-1H-pyrrolo[2,3-c]pyridine-2-carboxamide], the melting point worked out at 275 °C.

Regarding `NC(=O)c1[nH]c2cnccc2c1-c1ccc(NC(=O)Nc2ccc(OC(F)F)c(Cl)c2)cc1` [Example 58, 3-{4-[3-(3-Chloro-4-difluoromethoxyphenyl)ureido]phenyl}-1H-pyrrolo[2,3-c]pyridine-2-carboxamide], the melting point was 267 °C.

For the molecule `Cc1cc(C)cc(NC(=O)Nc2ccc(-c3c(C(N)=O)[nH]c4cnccc34)cc2)c1` [Example 59, 3-{4-[3-(3,5-Dimethylphenyl)ureido]phenyl}-1H-pyrrolo[2,3-c]pyridine-2-carboxamide], the melting point came out at 188 °C.

Consider `CCc1cccc(NC(=O)Nc2ccc(-c3c(C(N)=O)[nH]c4cnccc34)cc2)c1` [Example 60, 3-{4-[3-(3-Ethylphenyl)ureido]phenyl}-1H-pyrrolo[2,3-c]-pyridine-2-carboxamide], for which the melting point was determined as 257 °C.

`CCc1cccc(NC(=O)Nc2ccc(-c3c(C(N)=O)[nH]c4ncccc34)cc2)c1` [Example 61, 3-{4-[3-(3-Ethylphenyl)ureido]phenyl}-1H-pyrrolo[2,3-b]-pyridine-2-carboxamide] had a melting point of 254 °C.

The record behind these values is patent publication US7947706B2, “Substituted pyrrolopyridines, compositions containing them, manufacturing process therefor and use thereof” (Sanofi-Aventis Deutschland GmbH, priority 2005, dated 2011).
